Consider 17 molecules from US12427210B2, “Compounds comprising a fibroblast activation protein ligand and use thereof” (priority 2019, dated 2025).

pIC50, pKd, pKi: −log10 of the molar value. Numbered stars: 1 amine (or outer) side, 2 acyl side, 3 side chain; on linkers, the order of the positions; unused ones are H or OH. Bridge positions count the residues as written; N and C are the ends. Peptide text beside a SMILES is read from it. * marks the point of attachment. X5 = O=C1CN2CCN3CCN(CC(=O)N4CCN(Cc5cc(C[*:1])cc(C[*:2])c5)CC4)CCN(CC2)CC(=O)[O][Eu]([O]1)[O]C(=O)C3; Hexanoyl = CCCCCC(=O)* A value given as a limit tells only on which side of the number the result lay.

The target in series [1] is T1, FAP (Homo sapiens, UniProt Q12884). In words: biochemical.
Series [2] has as its target FAP-expressing human WI-38 fibroblasts (Homo sapiens, UniProt Q12884). In words: cell-based.
In a further series the target is Cathepsin L (Homo sapiens, UniProt P07711). The following applies: 1 μM.
In a further series the target is Cathepsin V (Homo sapiens, UniProt O60911). The following applies: 100 nM.
The next series concerns the target Cathepsin B (Homo sapiens, UniProt P07858). The following applies: 100 nM.
The next series addresses Cathepsin S (Homo sapiens, UniProt P25774). Conditions: 100 nM.
A further series addresses T2, alpha 1A (h) (Homo sapiens, UniProt P35348).
T2 sequence (P35348 1-466): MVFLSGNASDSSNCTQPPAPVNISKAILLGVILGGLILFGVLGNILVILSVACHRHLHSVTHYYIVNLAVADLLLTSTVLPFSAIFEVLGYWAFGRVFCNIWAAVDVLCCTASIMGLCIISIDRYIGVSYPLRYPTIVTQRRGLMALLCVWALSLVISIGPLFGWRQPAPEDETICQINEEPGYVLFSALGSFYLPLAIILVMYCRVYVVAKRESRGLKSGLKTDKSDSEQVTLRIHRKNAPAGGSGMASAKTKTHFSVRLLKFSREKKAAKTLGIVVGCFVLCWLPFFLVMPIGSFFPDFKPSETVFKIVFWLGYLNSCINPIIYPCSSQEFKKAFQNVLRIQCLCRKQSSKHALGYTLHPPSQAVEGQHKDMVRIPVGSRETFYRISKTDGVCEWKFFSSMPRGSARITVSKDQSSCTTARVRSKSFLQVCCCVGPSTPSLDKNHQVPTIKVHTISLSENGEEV
Conditions: read-out: Ki Ref; reference compound.

Another series concerns the target Activated Protein C (Homo sapiens, UniProt P04070). In words: biochemical. Conditions: read-out: Percentage inhibition (%), Reference.
The test system of a further series is Sarc4809 PDX tumors. In words: Efficacy study sarcoma Sarc4809 PDX model.
Another series has as its system HEK-FAP tumors. In words: Efficacy study HEK-FAP.
The target in another series is NMDA. The following applies: read-out: Ki Ref; reference compound.
For another series, the target named is T3, Cathepsin F (Homo sapiens, UniProt Q9UBX1).
T3 sequence (Q9UBX1 271-484): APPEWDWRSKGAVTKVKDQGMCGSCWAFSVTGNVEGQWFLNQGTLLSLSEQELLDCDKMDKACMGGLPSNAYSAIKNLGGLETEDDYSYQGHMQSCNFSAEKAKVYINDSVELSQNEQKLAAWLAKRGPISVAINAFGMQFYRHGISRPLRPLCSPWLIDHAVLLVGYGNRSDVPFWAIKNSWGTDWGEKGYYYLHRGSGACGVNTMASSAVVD
The following applies: 1 μM.

A further series concerns the target T4, Renin (Homo sapiens, UniProt P00797).
T4 sequence (P00797 67-406): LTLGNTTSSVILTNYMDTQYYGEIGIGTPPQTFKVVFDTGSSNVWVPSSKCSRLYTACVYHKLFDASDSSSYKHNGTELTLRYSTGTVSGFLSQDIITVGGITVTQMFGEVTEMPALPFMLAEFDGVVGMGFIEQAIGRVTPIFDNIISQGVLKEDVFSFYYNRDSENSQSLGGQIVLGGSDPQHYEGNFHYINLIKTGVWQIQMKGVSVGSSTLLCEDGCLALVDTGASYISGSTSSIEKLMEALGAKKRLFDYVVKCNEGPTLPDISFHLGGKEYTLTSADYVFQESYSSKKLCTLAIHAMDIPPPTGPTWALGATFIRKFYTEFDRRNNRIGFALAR
In words: biochemical. The following applies: read-out: Percentage inhibition (%), Reference.

The target of another series is T5, Caspase-3 (Homo sapiens, UniProt P42574).
T5 sequence (P42574 29-175 limits assumed): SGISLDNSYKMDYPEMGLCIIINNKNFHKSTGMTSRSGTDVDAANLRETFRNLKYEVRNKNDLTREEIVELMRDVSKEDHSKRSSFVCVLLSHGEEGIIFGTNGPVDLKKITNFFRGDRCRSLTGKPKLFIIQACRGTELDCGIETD
T5 sequence (P42574 176-277 limits assumed): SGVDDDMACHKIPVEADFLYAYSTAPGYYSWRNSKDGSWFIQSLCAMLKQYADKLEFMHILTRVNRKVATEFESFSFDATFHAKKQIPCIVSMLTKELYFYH
Conditions: 100 nM.

For the next series, the target named is T6, Caspase-7 (Homo sapiens, UniProt P55210).
T6 sequence (P55210 24-198 limits assumed): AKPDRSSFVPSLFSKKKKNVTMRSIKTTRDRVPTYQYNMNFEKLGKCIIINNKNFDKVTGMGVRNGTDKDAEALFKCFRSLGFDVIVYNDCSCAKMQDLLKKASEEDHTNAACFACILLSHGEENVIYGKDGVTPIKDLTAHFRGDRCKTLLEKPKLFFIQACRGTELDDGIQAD
T6 sequence (P55210 207-303 limits assumed): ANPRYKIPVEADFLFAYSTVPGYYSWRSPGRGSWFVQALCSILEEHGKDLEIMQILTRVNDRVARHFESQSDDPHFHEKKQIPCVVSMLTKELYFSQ
Conditions: 1 μM.

For series [3], the target named is T1, FAP. In words: biochemical. This is another data set of the same source.
Series [4] can be described thus: in vitro. Conditions: mouse, plasma.
Series [5] in a line: in vitro. The following applies: human, plasma.
A short description of series [6]: in vitro. Conditions: rat, plasma.
In the next series the target is 5-HT2B (h) (Homo sapiens, UniProt P41595). The following applies: read-out: Ki Ref; reference compound.
Another series deals with KV channel. The following applies: read-out: Ki Ref; reference compound.
The mark [7] stands for this setting: throughout the study, all groups.

For `CCCCCC(=O)N[C@H]1CSCc2cc(CSCCNC(=O)CN3CCN4CCN(CC(=O)O)CCN(CC3)CC(=O)[O][Cu][O]C(=O)C4)cc(c2)CSC[C@@H](C(=O)O)NC(=O)[C@H](Cc2ccccc2)NC(=O)[C@H](CCC(N)=O)NC(=O)[C@H]([C@@H](C)O)NC(=O)[C@@H]2CCCN2C(=O)[C@@H]2CCCN2C1=O` [Compound 3BP-4293, Hex-[Cys-(tMeBn(CuDOTA-AET))-Pro-Pro-Thr-Gln-Phe-Cys]-OH], the pIC50 (against FAP [1]; in series [2]) was above 8.00 each time.

On to `CC(C)C[C@H](NC(=O)[C@H]1O[C@@H]1C(=O)O)C(=O)NCCCCN=C(N)N` [Compound E-64, E-64], for which the “Percentage inhibition (%), Reference” value at Cathepsin L worked out at 97%; at Cathepsin V, 83%; at Cathepsin B it was 97%; on Cathepsin S it was 91%.

In the case of `COc1cccc(OC)c1OCCNCC1COc2ccccc2O1` (stereo not shown) [WB 4101], the pKi at alpha 1A (h) was 9.62.

As to `[H]/N=C(/N)c1ccc(NCc2nc3cc(C(=O)N(CCC(=O)O)c4ccccn4)ccc3n2C)cc1` [Dabigatran, reference compound], the inhibition at 20 µM on Activated Protein C was determined as 74%.

For the molecule `CCCCCC(=O)N[C@H]1CSCc2cc(CSCCNC(=O)CN3CCN4CCN5CCN(CC3)CC(=O)[O][Eu]([O]C(=O)C4)[O]C(=O)C5)cc(c2)CSC[C@@H](C(=O)O)NC(=O)[C@H](Cc2ccccc2)NC(=O)[C@H](CCC(N)=O)NC(=O)[C@H]([C@@H](C)O)NC(=O)[C@@H]2CCCN2C(=O)[C@@H]2CCCN2C1=O` [Compound 3BP-3662, Hex-[Cys(tMeBn(EuDOTA-AET))-Pro-Pro-Thr-Gln-Phe-Cys]-OH], the pIC50 (at FAP [1]; in series [2]) was above 8.00 in each case.

As to `CCCCCC(=O)N[C@H]1CSCc2cc(CSCCNC(=O)CN3CCN4CCN5CCN(CC3)CC(=O)[O][Lu]([O]C(=O)C4)[O]C(=O)C5)cc(c2)CSC[C@@H](C(=O)O)NC(=O)[C@H](Cc2ccccc2)NC(=O)[C@H](CCC(N)=O)NC(=O)[C@H]([C@@H](C)O)NC(=O)[C@@H]2CCCN2C(=O)[C@@H]2CCCN2C1=O` [^natLu-3BP-3554], the MTV with Sarc4809 PDX tumors (cold compound (control group), day 31) is recorded as 1225±775 mm^3. In the series with HEK-FAP tumors (cold compound, single i.v. injection Day 0, day 14), the “mean tumor volume (MTV)” value is 1392±420 mm^3.

Regarding `O=C(O)[C@@H]1C[C@H](CP(=O)(O)O)CCN1` [CGS 19755, reference compound], the pKi at NMDA was 6.85.

With Cystatin C, on Cathepsin F, the “Percentage inhibition (%), Reference” value is 74%.

For the molecule `CCCCCC(=O)N[C@H]1CSCc2cc(CSCCNC(=O)CN3CCN4CCN(CC(=O)O)CCN(CC3)CC(=O)[O][Zn][O]C(=O)C4)cc(c2)CSC[C@@H](C(=O)O)NC(=O)[C@H](Cc2ccccc2)NC(=O)[C@H](CCC(N)=O)NC(=O)[C@H]([C@@H](C)O)NC(=O)[C@@H]2CCCN2C(=O)[C@@H]2CCCN2C1=O` [Compound 3BP-4343, Hex-[Cys-(tMeBn(ZnDOTA-AET))-Pro-Pro-Thr-Gln-Phe-Cys]-OH], the negative logarithm of the IC50 (pIC50) (against FAP [1]; in series [2]) was above 8.00 each time.

Regarding `COCCCOc1cc(C[C@@H](C[C@H](N)[C@@H](O)C[C@H](C(=O)NCC(C)(C)C(N)=O)C(C)C)C(C)C)ccc1OC` [Aliskiren, reference compound], the inhibition at 0.03 µM on Renin was determined as 99%.

Take `COC[C@@H]1CCCN1S(=O)(=O)c1ccc2c(c1)C(=O)C(=O)N2` [Caspase 3/7 Inhibitor I]: the “Percentage inhibition (%), Reference” value on Caspase-3 is reported as 89%; on Caspase-7 it was 92%.

At FAP [3], `CCCCCC(=O)N[C@H]1CSCc2cc(CSCCNC(=O)CN3CCN4CCN5CCN(CC3)CC(=O)[O][Lu]([O]C(=O)C4)[O]C(=O)C5)cc(c2)CSC[C@@H](C(=O)O)NC(=O)[C@H](Cc2ccccc2)NC(=O)[C@H](CCC(N)=O)NC(=O)[C@H]([C@@H](C)O)NC(=O)[C@@H]2CCCN2C(=O)[C@@H]2CCCN2C1=O` [Compound 3BP-3624, Hex-[Cys(tMeBn(LuDOTA-AET))-Pro-Pro-Thr-Gln-Phe-Cys]-OH] gave a pKd above 8.00. For the same molecule, the share remaining at 24 h, 9.8 µM in “in vitro [4]”, in the series “in vitro [5]” and in the series “in vitro [6]” was 100% each time. Besides, the pIC50 (against FAP [1]; in series [2]) was above 8.00 in each case.

On to `CCCCCC(=O)N[C@H]1CSCc2cc(CSCCNC(=O)CN3CCN4CCN5CCN(CC3)CC(=O)[O][Ga]([O]C(=O)C4)[O]C(=O)C5)cc(c2)CSC[C@@H](C(=O)O)NC(=O)[C@H](Cc2ccccc2)NC(=O)[C@H](CCC(N)=O)NC(=O)[C@H]([C@@H](C)O)NC(=O)[C@@H]2CCCN2C(=O)[C@@H]2CCCN2C1=O` [Compound 3BP-3949, Hex-[Cys(tMeBn(GaDOTA-AET))-Pro-Pro-Thr-Gln-Phe-Cys]-OH], for which the pKd on FAP [3] was above 8.00. Besides, the pIC50 (at FAP [1]; in [2]) was above 8.00 throughout.

`COc1cc(CC(C)N)c(OC)cc1I` (racemic) [(±)DOI]: the pKi at 5-HT2B (h) was 8.38.

As to `CCCCCC(=O)N[C@H]1CSCc2cc(cc(CN3CCN(C(=O)CN4CCN5CCN6CCN(CC4)CC(=O)[O][Eu]([O]C(=O)C6)[O]C(=O)C5)CC3)c2)CSC[C@@H](C(=O)N[C@@H](CC(=O)O)C(N)=O)NC(=O)[C@H](Cc2ccccc2)NC(=O)[C@H](CCC(N)=O)NC(=O)[C@H]([C@@H](C)O)NC(=O)[C@@H]2CCCN2C(=O)[C@@H]2CCCN2C1=O` [Compound 3BP-3661, Hex-[Cys(tMeBn(EuDOTA-PP))-Pro-Pro-Thr-Gln-Phe-Cys]-Asp-NH2] (Hexanoyl-CPPTQFCD-NH2; linker 1-7 via X5), the pIC50 (at FAP [1]; in series [2]) was above 8.00 in each case.

For the molecule `CCCCCC(=O)N[C@H]1CSCc2cc(CSCCNC(=O)CN3CCN(CC(=O)O)CCN(CC(=O)O)CCN(CC(=O)O)CC3)cc(c2)CSC[C@@H](C(=O)O)NC(=O)[C@H](Cc2ccccc2)NC(=O)[C@H](CCC(N)=O)NC(=O)[C@H]([C@@H](C)O)NC(=O)[C@@H]2CCCN2C(=O)[C@@H]2CCCN2C1=O` [^177Lu-3BP-3554, metal not drawn], the “body weight loss (BWL)” value with Sarc4809 PDX tumors (setting [7]) is reported as “No treatment-related body weight loss”. The body weight loss entry with HEK-FAP tumors (setting [7]) was “No treatment-related body weight loss”.

Regarding alpha-dendrotoxin [reference compound], the pKi on KV channel is 10.01.
